Results published in PubChem BioAssay AID1963971 (Molecular Pharmacology Branch, DTP, NCI, 2024).

System: 953936-095-R-J2-PDC spheroids with HUVEC/MSC, viability
Test: Anticancer human tumor 953936-095-R-J2-PDC patient-derived cervical squamous cell carcinoma cell line growth inhibition [PI3K]
Details: for IC50: curve of first compound; for viability, T/C: stronger effect = lower value
Method in brief: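 Combination activity was assessed by viability in multicellular tumor spheroids carrying HUVEC and MSC components. Agents were tested with PI3K inhibitors from a Cmax-based top dose (or 10 microM) downward in half-log increments.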

[1] = second compound 0.0316 µM, first compound 0.0316 µM
[2] = second compound 0.0316 µM, first compound 0.1 µM
[3] = second compound 0.0316 µM, first compound 0.316 µM
[4] = second compound 0.0316 µM, first compound 1 µM
[5] = second compound 0.0316 µM, first compound 3.16 µM
[6] = second compound 0.0316 µM, first compound 10 µM
[7] = second compound 0.1 µM, first compound 0.0316 µM
[8] = second compound 0.1 µM, first compound 0.1 µM
[9] = second compound 0.1 µM, first compound 0.316 µM
[10] = second compound 0.1 µM, first compound 1 µM
[11] = second compound 0.1 µM, first compound 3.16 µM
[12] = second compound 0.1 µM, first compound 10 µM
[13] = second compound 0.316 µM, first compound 0.0316 µM
[14] = second compound 0.316 µM, first compound 0.1 µM
[15] = second compound 0.316 µM, first compound 0.316 µM
[16] = second compound 0.316 µM, first compound 1 µM
[17] = second compound 0.316 µM, first compound 3.16 µM
[18] = second compound 0.316 µM, first compound 10 µM
[19] = second compound 1 µM, first compound 0.0316 µM
[20] = second compound 1 µM, first compound 0.1 µM
[21] = second compound 1 µM, first compound 0.316 µM
[22] = second compound 1 µM, first compound 1 µM
[23] = second compound 1 µM, first compound 3.16 µM
[24] = second compound 1 µM, first compound 10 µM
[25] = second compound 3.16 µM, first compound 0.0316 µM
[26] = second compound 3.16 µM, first compound 0.1 µM
[27] = second compound 3.16 µM, first compound 0.316 µM
[28] = second compound 3.16 µM, first compound 1 µM
[29] = second compound 3.16 µM, first compound 3.16 µM
[30] = second compound 3.16 µM, first compound 10 µM
[31] = second compound 10 µM, first compound 0.0316 µM
[32] = second compound 10 µM, first compound 0.1 µM
[33] = second compound 10 µM, first compound 0.316 µM
[34] = second compound 10 µM, first compound 1 µM
[35] = second compound 10 µM, first compound 3.16 µM
[36] = second compound 10 µM, first compound 10 µM
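Also: spheroids exposed to compounds for seven days before read-out.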

## C#Cc1c(F)ccc2cc(O)cc(-c3ncc4c(N5CC6CCC(C5)N6)nc(OCC56CCCN5CC(F)C6)nc4c3F)c12 (stereo not drawn) + CC(Nc1ncnc2nc[nH]c12)c1cc2cccc(Cl)c2c(=O)n1-c1ccccc1
Second compound 0.0316 µM
  IC50: > 10 µM
Second compound 0.1 µM
  IC50: > 10 µM
Second compound 0.316 µM
  IC50: > 10 µM
Second compound 1 µM
  IC50: > 10 µM
Second compound 3.16 µM
  IC50: 6.34 µM
Second compound 10 µM
  IC50: 1.8 µM
[1]
  viability, T/C: 90.6%
[2]
  viability, T/C: 91.9%
[3]
  viability, T/C: 105%
[4]
  viability, T/C: 97.1%
[5]
  viability, T/C: 91.3%
[6]
  viability, T/C: 67.2%
[7]
  viability, T/C: 95.2%
[8]
  viability, T/C: 98.3%
[9]
  viability, T/C: 99.9%
[10]
  viability, T/C: 104%
[11]
  viability, T/C: 80.2%
[12]
  viability, T/C: 70.8%
[13]
  viability, T/C: 94%
[14]
  viability, T/C: 95.2%
[15]
  viability, T/C: 90.5%
[16]
  viability, T/C: 82.2%
[17]
  viability, T/C: 75.2%
[18]
  viability, T/C: 67.8%
[19]
  viability, T/C: 96.2%
[20]
  viability, T/C: 83.5%
[21]
  viability, T/C: 84.7%
[22]
  viability, T/C: 86.9%
[23]
  viability, T/C: 80%
[24]
  viability, T/C: 57.2%
[25]
  viability, T/C: 87.9%
[26]
  viability, T/C: 79.5%
[27]
  viability, T/C: 76%
[28]
  viability, T/C: 74.3%
[29]
  viability, T/C: 60.3%
[30]
  viability, T/C: 42.6%
[31]
  viability, T/C: 55.8%
[32]
  viability, T/C: 65.4%
[33]
  viability, T/C: 51.7%
[34]
  viability, T/C: 57.3%
[35]
  viability, T/C: 43.3%
[36]
  viability, T/C: 31.2%

## C=CC(=O)N1CCN(c2nc(=O)n(-c3c(C)ccnc3C(C)C)c3nc(-c4c(O)cccc4F)c(F)cc23)C(C)C1 (stereo not drawn) + CC(Nc1ncnc2nc[nH]c12)c1cc2cccc(Cl)c2c(=O)n1-c1ccccc1
Second compound 0.0316 µM
  IC50: > 10 µM
Second compound 0.1 µM
  IC50: > 10 µM
Second compound 0.316 µM
  IC50: > 10 µM
Second compound 1 µM
  IC50: > 10 µM
Second compound 3.16 µM
  IC50: > 10 µM
Second compound 10 µM
  IC50: > 10 µM
[1]
  viability, T/C: 92.8%
[2]
  viability, T/C: 112%
[3]
  viability, T/C: 121%
[4]
  viability, T/C: 119%
[5]
  viability, T/C: 118%
[6]
  viability, T/C: 129%
[7]
  viability, T/C: 104%
[8]
  viability, T/C: 108%
[9]
  viability, T/C: 110%
[10]
  viability, T/C: 122%
[11]
  viability, T/C: 132%
[12]
  viability, T/C: 111%
[13]
  viability, T/C: 94.2%
[14]
  viability, T/C: 106%
[15]
  viability, T/C: 111%
[16]
  viability, T/C: 118%
[17]
  viability, T/C: 113%
[18]
  viability, T/C: 128%
[19]
  viability, T/C: 91.1%
[20]
  viability, T/C: 97.7%
[21]
  viability, T/C: 99%
[22]
  viability, T/C: 118%
[23]
  viability, T/C: 110%
[24]
  viability, T/C: 113%
[25]
  viability, T/C: 85%
[26]
  viability, T/C: 79.2%
[27]
  viability, T/C: 79.7%
[28]
  viability, T/C: 88.1%
[29]
  viability, T/C: 107%
[30]
  viability, T/C: 105%
[31]
  viability, T/C: 63.7%
[32]
  viability, T/C: 67%
[33]
  viability, T/C: 62.3%
[34]
  viability, T/C: 82.6%
[35]
  viability, T/C: 85.3%
[36]
  viability, T/C: 81%

## CC(Cn1ccc(-c2ccc(C#N)c(Cl)c2)n1)NC(=O)c1cc(C(C)O)[nH]n1 (stereo not drawn) + CC(Nc1ncnc2nc[nH]c12)c1cc2cccc(Cl)c2c(=O)n1-c1ccccc1
Second compound 0.0316 µM
  IC50: > 10 µM
Second compound 0.1 µM
  IC50: > 10 µM
Second compound 0.316 µM
  IC50: > 10 µM
Second compound 1 µM
  IC50: > 10 µM
Second compound 3.16 µM
  IC50: > 10 µM
Second compound 10 µM
  IC50: > 10 µM
[1]
  viability, T/C: 97.5%
[2]
  viability, T/C: 100%
[3]
  viability, T/C: 101%
[4]
  viability, T/C: 91.1%
[5]
  viability, T/C: 108%
[6]
  viability, T/C: 96%
[7]
  viability, T/C: 98.4%
[8]
  viability, T/C: 106%
[9]
  viability, T/C: 93.6%
[10]
  viability, T/C: 109%
[11]
  viability, T/C: 101%
[12]
  viability, T/C: 93.5%
[13]
  viability, T/C: 107%
[14]
  viability, T/C: 85.7%
[15]
  viability, T/C: 90.8%
[16]
  viability, T/C: 88.6%
[17]
  viability, T/C: 92.8%
[18]
  viability, T/C: 93.4%
[19]
  viability, T/C: 98.2%
[20]
  viability, T/C: 91.7%
[21]
  viability, T/C: 91.7%
[22]
  viability, T/C: 94.4%
[23]
  viability, T/C: 97.7%
[24]
  viability, T/C: 90.1%
[25]
  viability, T/C: 83.7%
[26]
  viability, T/C: 73.6%
[27]
  viability, T/C: 72.2%
[28]
  viability, T/C: 75.9%
[29]
  viability, T/C: 79.9%
[30]
  viability, T/C: 70.7%
[31]
  viability, T/C: 55.7%
[32]
  viability, T/C: 56%
[33]
  viability, T/C: 62.8%
[34]
  viability, T/C: 60.5%
[35]
  viability, T/C: 59.3%
[36]
  viability, T/C: 58.8%

## CC1(C)CCC(Nc2ncc(C(F)(F)F)c(-c3c[nH]c4c(P(C)(C)=O)c(C#N)ccc34)n2)CN1 (stereo not drawn) + CC(Nc1ncnc2nc[nH]c12)c1cc2cccc(Cl)c2c(=O)n1-c1ccccc1
Second compound 0.0316 µM
  IC50: 3.67 µM
Second compound 0.1 µM
  IC50: 3.37 µM
Second compound 0.316 µM
  IC50: 3.39 µM
Second compound 1 µM
  IC50: 1.78 µM
Second compound 3.16 µM
  IC50: < 0.0316 µM
Second compound 10 µM
  IC50: < 0.0316 µM
[1]
  viability, T/C: 52.6%
[2]
  viability, T/C: 55.8%
[3]
  viability, T/C: 57.6%
[4]
  viability, T/C: 61.3%
[5]
  viability, T/C: 56.1%
[6]
  viability, T/C: 7.92%
[7]
  viability, T/C: 52.2%
[8]
  viability, T/C: 53.5%
[9]
  viability, T/C: 53.7%
[10]
  viability, T/C: 62.5%
[11]
  viability, T/C: 51.9%
[12]
  viability, T/C: 6.89%
[13]
  viability, T/C: 60.1%
[14]
  viability, T/C: 53.2%
[15]
  viability, T/C: 44.6%
[16]
  viability, T/C: 49.9%
[17]
  viability, T/C: 56.3%
[18]
  viability, T/C: 6.08%
[19]
  viability, T/C: 59.9%
[20]
  viability, T/C: 49.7%
[21]
  viability, T/C: 49.2%
[22]
  viability, T/C: 46.3%
[23]
  viability, T/C: 49.2%
[24]
  viability, T/C: 5.38%
[25]
  viability, T/C: 45.9%
[26]
  viability, T/C: 46.7%
[27]
  viability, T/C: 49.3%
[28]
  viability, T/C: 44.5%
[29]
  viability, T/C: 45.7%
[30]
  viability, T/C: 3.11%
[31]
  viability, T/C: 38%
[32]
  viability, T/C: 36.5%
[33]
  viability, T/C: 38.4%
[34]
  viability, T/C: 39.6%
[35]
  viability, T/C: 42.1%
[36]
  viability, T/C: 1.76%
